{"source": "ChEMBL document CHEMBL6115007", "about": "“Synthesis and in vitro and in vivo evaluation of novel bivalent quinolines as antitumor agents via targeting autophagy in cervical cancer” (Eur J Med Chem, 2025)", "key": {"HeLa [1]": {"system": "HeLa", "assay": "Effect on ATG16L1 protein level in human HeLa cells at 0.6 to 1.2 uM incubated for 24 hrs by Western blot analysis", "assay_type": "functional, cell-based", "settings": "dose 0.6-1.2 µM"}, "Ca-Ski [2]": {"system": "Ca-Ski", "assay": "Induction of apoptosis in human Ca Ski cells assessed as early apoptotic cells at 0.5 uM incubated for 24 hrs by Annexin V-FITC/PI staining based flow cytometric analysis (reference value: 4.76 %)", "assay_type": "functional"}, "HeLa [3]": {"system": "HeLa", "assay": "Upregulation of autophagy pathway related gene expression in human HeLa cells at 1.2 uM incubated for 24 hrs by GSVA enrichment analysis", "assay_type": "functional, cell-based"}, "Ca-Ski [4]": {"system": "Ca-Ski", "assay": "Induction of autophagy in human Ca Ski cells assessed as increase in LC3-I conversion to LC3-II at 0.25 to 1 microM incubated for 24 hrs by Western blot analysis", "assay_type": "functional, cell-based", "settings": "dose 0.25-1 µM"}, "[5]": {"assay": "Toxicity in female BALB/c mouse xenografted with human HeLa cells assessed as effect on liver at 4 to 8 mg/kg administered every four days and measured after 26 days by H and E staining based analysis", "assay_type": "organism-based", "settings": "in vivo, 624 h, dose 4-8 mg/kg, time 26 day"}, "C-33-A [6]": {"system": "C-33-A", "assay": "Induction of morphological changes in human C-33-A cells assessed as increase in appearance of round cells at 0.3 to 1.2 uM by microphotographic analysis", "assay_type": "functional, cell-based", "settings": "dose 0.3-1.2 µM"}, "SiHa": {"system": "SiHa", "assay": "Induction of morphological changes in human SiHa cells assessed as decrease in cell adherence to culture dish at 0.5 to 2 uM by microphotographic analysis", "assay_type": "functional, cell-based", "settings": "dose 0.5-2 µM"}, "Ca-Ski [7]": {"system": "Ca-Ski", "assay": "Induction of apoptosis in human Ca Ski cells assessed as late apoptotic cells at 1 uM incubated for 24 hrs by Annexin V-FITC/PI staining based flow cytometric analysis (reference value: 5.33 %)", "assay_type": "functional"}, "HeLa [8]": {"system": "HeLa", "assay": "Antiproliferative activity against human HeLa cells assessed as inhibition of cell viability incubated for 24 hrs by CCK8 assay", "assay_type": "functional, cell-based"}, "Ca-Ski [9]": {"system": "Ca-Ski", "assay": "Antiproliferative activity against human Ca Ski cells assessed as inhibition of cell growth at 0.4 to 1.6 uM by CCK8 assay", "assay_type": "functional, cell-based", "settings": "dose 0.4-1.6 µM, time 6.0 day"}, "HeLa [10]": {"system": "HeLa", "assay": "Induction of apoptosis in human HeLa cells assessed as viable cells at 0.6 uM preincubated with Z-VAD-FMK for 1 hrs followed by compound addition and measured after 24 hrs by Annexin V-FITC/PI staining based flow cytometric analysis (reference value: 95.8 %)", "assay_type": "functional", "settings": "read-out: Activity"}, "[11]": {"assay": "Toxicity in female BALB/c mouse xenografted with human HeLa cells assessed as effect on ALT level at 4 to 8 mg/kg administered every four days and measured after 26 days", "assay_type": "organism-based", "settings": "in vivo, 624 h, dose 4-8 mg/kg, time 26 day"}, "Ca-Ski [12]": {"system": "Ca-Ski", "assay": "Induction of apoptosis in human Ca Ski cells assessed as late apoptotic cells at 1 uM preincubated with Z-VAD-FMK for 1 hrs followed by compound addition and measured after 24 hrs by Annexin V-FITC/PI staining based flow cytometric analysis (reference value: 5.30 %)", "assay_type": "functional"}, "HeLa [13]": {"system": "HeLa", "assay": "Induction of autophagy in ATG7 deficient human HeLa cells assessed as increase in LC3-II expression at 0.6 to 1.2 uM incubated for 24 hrs by Western blot analysis", "assay_type": "functional, cell-based", "settings": "dose 0.6-1.2 µM"}, "HeLa [14]": {"system": "HeLa", "assay": "Induction of apoptosis in human HeLa cells assessed as early apoptotic cells at 1.2 uM incubated for 24 hrs by Annexin V-FITC/PI staining based flow cytometric analysis (reference value: 0.97 %)", "assay_type": "functional"}, "HeLa [15]": {"system": "HeLa", "assay": "Induction of morphological changes in human HeLa cells assessed as increase in inflated cell appearance at 0.6 to 2.4 uM by microphotographic analysis", "assay_type": "functional, cell-based", "settings": "dose 0.6-2.4 µM"}, "HeLa [16]": {"system": "HeLa", "assay": "Effect on cleaved PARP expression level in p53 deficient human HeLa cells at 0.6 to 1.2 uM incubated for 24 hrs by Western blot analysis", "assay_type": "functional, cell-based", "settings": "dose 0.6-1.2 µM"}, "Ca-Ski [17]": {"system": "Ca-Ski", "assay": "Effect on cleaved PARP expression level in Bax deficient human Ca Ski cells at 0.5 to 1 uM incubated for 24 hrs by Western blot analysis", "assay_type": "functional, cell-based", "settings": "dose 0.5-1 µM"}, "C-33-A [18]": {"system": "C-33-A", "assay": "Inhibition of colony formation in human C-33-A cells assessed as reduction in colony forming unit count at 0.05 to 0.2 uM incubated for 24 hrs by crystal violet staining based analysis", "assay_type": "functional, cell-based", "settings": "dose 0.05-0.2 µM"}, "Ca-Ski [19]": {"system": "Ca-Ski", "assay": "Antiproliferative activity against ATG5 deficient human Ca Ski cells assessed as inhibition of cell viability incubated for 24 hrs by CCK8 assay", "assay_type": "functional, cell-based"}, "Ca-Ski [20]": {"system": "Ca-Ski", "assay": "Effect on SLC7A11 protein expression level in human Ca Ski cells at 0.5 uM incubated for 24 hrs by Western blot analysis", "assay_type": "functional, cell-based"}, "HeLa [21]": {"system": "HeLa", "assay": "Effect on cleaved caspase 3 expression level in p53 deficient human HeLa cells at 0.6 to 1.2 uM incubated for 24 hrs by Western blot analysis", "assay_type": "functional, cell-based", "settings": "dose 0.6-1.2 µM"}, "HeLa [22]": {"system": "HeLa", "assay": "Induction of apoptosis in human HeLa cells assessed as necrotic cells at 0.6 uM incubated for 24 hrs by Annexin V-FITC/PI staining based flow cytometric analysis (reference value: 1.88 %)", "assay_type": "functional"}, "HeLa [23]": {"system": "HeLa", "assay": "Induction of apoptosis in human HeLa cells assessed as early apoptotic cells at 1.2 uM preincubated with Z-VAD-FMK for 1 hrs followed by compound addition and measured after 24 hrs by Annexin V-FITC/PI staining based flow cytometric analysis (reference value: 0.96 %)", "assay_type": "functional"}, "HeLa [24]": {"system": "HeLa", "assay": "Effect on cleaved PARP expression level in Bax deficient human HeLa cells at 0.6 to 1.2 uM incubated for 24 hrs by Western blot analysis", "assay_type": "functional, cell-based", "settings": "dose 0.6-1.2 µM"}, "Ca-Ski [25]": {"system": "Ca-Ski", "assay": "Induction of apoptosis in human Ca Ski cells assessed as viable cells at 1 uM preincubated with Z-VAD-FMK for 1 hrs followed by compound addition and measured after 24 hrs by Annexin V-FITC/PI staining based flow cytometric analysis (reference value: 90.2 %)", "assay_type": "functional", "settings": "read-out: Activity"}, "Ca-Ski [26]": {"system": "Ca-Ski", "assay": "Antiproliferative activity against ATG7 deficient human Ca Ski cells assessed as inhibition of cell viability incubated for 24 hrs by CCK8 assay", "assay_type": "functional, cell-based"}, "Ca-Ski [27]": {"system": "Ca-Ski", "assay": "Inhibition of cell migration in human Ca Ski cells at 0.5 to 1 uM measured after 24 hrs by transwell migration assay", "assay_type": "functional, cell-based", "settings": "dose 0.5-1 µM"}, "HeLa [28]": {"system": "HeLa", "assay": "Induction of autophagy in human HeLa cells transfected with mRFP-GFP-LC3 plasmid assessed as decrease in GFP fluorescence at 30 uM incubated for 24 hrs by DAPI staining based fluorescence confocal microscopic analysis", "assay_type": "functional, cell-based"}, "[29]": {"assay": "Toxicity in female BALB/c mouse xenografted with human HeLa cells assessed as effect on body weight at 4 to 8 mg/kg administered every four days and measured after 26 days", "assay_type": "organism-based", "settings": "in vivo, 624 h, dose 4-8 mg/kg, time 26 day"}, "HeLa [30]": {"system": "HeLa", "assay": "Effect on ferroptosis pathway related gene expression in human HeLa cells at 1.2 uM incubated for 24 hrs by GSVA enrichment analysis", "assay_type": "functional, cell-based"}, "Ca-Ski [31]": {"system": "Ca-Ski", "assay": "Induction of ferroptosis in human Ca Ski cells assessed as increase in lipid ROS level by measuring rightward shift in fluorescence intensity at 0.5 uM measured after 24 hrs by C11-BODIPY-581/591 staining based flow cytometric analysis", "assay_type": "functional, cell-based"}, "HeLa [32]": {"system": "HeLa", "assay": "Effect on caspase 3 expression level in p53 deficient human HeLa cells at 0.6 to 1.2 uM incubated for 24 hrs by Western blot analysis", "assay_type": "functional, cell-based", "settings": "dose 0.6-1.2 µM"}, "[33]": {"assay": "Toxicity in female BALB/c mouse xenografted with human HeLa cells assessed as effect on kidney at 4 to 8 mg/kg administered every four days and measured after 26 days by H and E staining based analysis", "assay_type": "organism-based", "settings": "in vivo, 624 h, dose 4-8 mg/kg, time 26 day"}}, "note": "The source made the active and inactive calls. The calls are words filed in the database; no cut-off is given here.", "data": [{"smiles": "COc1cccc(Nc2ccnc3cc(OCCCCCOc4ccc5c(Nc6cccc(OC)c6)ccnc5c4)ccc23)c1", "values": [{"measurement": "Activity", "setting": "HeLa [1]", "result": "inactive"}, {"measurement": "Activity", "setting": "Ca-Ski [2]", "result": 8.01, "unit": "%"}, {"measurement": "Activity", "setting": "HeLa [3]", "result": "Active"}, {"measurement": "Activity", "setting": "Ca-Ski [4]", "result": "Active"}, {"measurement": "Activity", "setting": "[5]", "result": "Non-toxic"}, {"measurement": "Activity", "setting": "C-33-A [6]", "result": "Active"}, {"measurement": "Activity", "setting": "SiHa", "result": "Active"}, {"measurement": "Activity", "setting": "Ca-Ski [7]", "result": 7.8, "unit": "%"}, {"measurement": "Activity", "setting": "HeLa [8]", "result": "Dose-dependent-effect"}, {"measurement": "IC50", "setting": "HeLa [8]", "result": 648, "unit": "nM"}, {"measurement": "Activity", "setting": "Ca-Ski [9]", "result": "Time-dependent-effect"}, {"measurement": "viability at 0.6 µM", "setting": "HeLa [10]", "result": 94.9, "unit": "%"}, {"measurement": "Activity", "setting": "[11]", "result": "Non-toxic"}, {"measurement": "Activity", "setting": "Ca-Ski [12]", "result": 6.59, "unit": "%"}, {"measurement": "Activity", "setting": "HeLa [13]", "result": "inactive"}, {"measurement": "Activity", "setting": "HeLa [14]", "result": 1.25, "unit": "%"}, {"measurement": "Activity", "setting": "HeLa [15]", "result": "Active"}, {"measurement": "Activity", "setting": "HeLa [16]", "result": "inactive"}, {"measurement": "Activity", "setting": "Ca-Ski [17]", "result": "inactive"}, {"measurement": "inhibition", "setting": "C-33-A [18]", "result": "Active"}, {"measurement": "IC50", "setting": "Ca-Ski [19]", "result": 1580, "unit": "nM"}, {"measurement": "Activity", "setting": "Ca-Ski [20]", "result": "Moderate_effect"}, {"measurement": "Activity", "setting": "HeLa [21]", "result": "inactive"}, {"measurement": "Activity", "setting": "HeLa [22]", "result": 2.66, "unit": "%"}, {"measurement": "Activity", "setting": "HeLa [23]", "result": 1.22, "unit": "%"}, {"measurement": "Activity", "setting": "HeLa [24]", "result": "inactive"}, {"measurement": "viability at 1 µM", "setting": "Ca-Ski [25]", "result": 86.1, "unit": "%"}, {"measurement": "IC50", "setting": "Ca-Ski [26]", "result": 2890, "unit": "nM"}, {"measurement": "inhibition", "setting": "Ca-Ski [27]", "result": "Active"}, {"measurement": "Activity", "setting": "HeLa [28]", "result": "Active"}, {"measurement": "Activity", "setting": "[29]", "result": "Non-toxic"}, {"measurement": "Activity", "setting": "HeLa [30]", "result": "Minimal_effect"}, {"measurement": "Activity", "setting": "Ca-Ski [31]", "result": "inactive"}, {"measurement": "Activity", "setting": "HeLa [32]", "result": "inactive"}, {"measurement": "Activity", "setting": "[33]", "result": "Non-toxic"}]}]}
